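How tested: cells in 96-well plates exposed to compound for 48 hours at five concentrations. GI50 = concentration required for 50% inhibition of growth. The concentration for full growth arrest is given as TGI.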

For ten molecules, GI50 and TGI results are on record in PubChem BioAssay (NCI).

Among the test systems are SW-620 colon; MDA-MB-435; RPMI-8226 leukemia; OVCAR-5 ovarian; EKVX NSCLC; SR leukemia; CAKI-1 renal; MCF7 breast; T-47D breast; NCI-H226 lung.
Experiment in all cases: growth of human tumour cells (NCI), 48 h

In the case of `Cc1ccc(-c2nc(NCCOCCOCCN)nc(N3CCN(c4ccccn4)CC3)n2)cc1`, the GI50 with SW-620 colon was 11 µM; with MDA-MB-435 it was 10.5 µM; in the assay on RPMI-8226 leukemia, 10.6 µM; with OVCAR-5 ovarian, 16.9 µM; with EKVX NSCLC, 15.8 µM; with SR leukemia, 5.5 µM. The GI50 was 16.5 µM in the assay on CAKI-1 renal, 12.7 µM in the assay on MCF7 breast, 13.7 µM in the assay with T-47D breast and 17.4 µM in the assay on NCI-H226 lung. Moreover, the TGI was 29.2 µM in the assay on SW-620 colon; 30.2 µM in the assay with MDA-MB-435; 32.8 µM with RPMI-8226 leukemia; 32.9 µM in the assay with OVCAR-5 ovarian; 33 µM in the assay with EKVX NSCLC; 20.7 µM in the assay on SR leukemia. The TGI in the assay on CAKI-1 renal came to 33.7 µM; in the assay with MCF7 breast, 26.9 µM; with T-47D breast it was 29.1 µM; in the assay on NCI-H226 lung, 34.3 µM.

Turning to `O=[N+]([O-])c1cccc(/C=N/Nc2ccc3ccccc3n2)c1O`, the TGI in the assay with SW-620 colon is over 48.4 µM; in the assay on MDA-MB-435 it was 20.1 µM; with RPMI-8226 leukemia, 24.3 µM; with OVCAR-5 ovarian, 48.3 µM; with EKVX NSCLC, 39.1 µM; in the assay on SR leukemia, 21.4 µM. For the same molecule, the TGI in the assay with CAKI-1 renal stood at 16.5 µM; with MCF7 breast it was 11.4 µM; in the assay with T-47D breast, 4.89 µM; in the assay on NCI-H226 lung, 9.98 µM.

On to `Cn1c(=O)c(-c2ccccc2Cl)cc2cnc(NC3CCOCC3)nc21`, for which the GI50 in the assay on SW-620 colon is 14.8 µM; in the assay on MDA-MB-435, 7.22 µM; with RPMI-8226 leukemia, over 15.7 µM; in the assay on OVCAR-5 ovarian, 18.5 µM; with SR leukemia, 8.3 µM; in the assay with CAKI-1 renal, 6.58 µM. The GI50 was over 25 µM with MCF7 breast, 18.1 µM in the assay on T-47D breast and 12.3 µM with NCI-H226 lung. For the same molecule, the TGI in the assay with SW-620 colon, with MDA-MB-435, in the assay with RPMI-8226 leukemia, in the assay on OVCAR-5 ovarian, with SR leukemia and with CAKI-1 renal was over 25 µM in each case. Moreover, the TGI with MCF7 breast, in the assay with T-47D breast and in the assay on NCI-H226 lung was over 25 µM in each case.

For `COc1cc(-c2nc(-c3ccccc3)c(-c3ccccc3)[nH]2)cc(OC)c1O`, the GI50 is 16.6 µM in the assay on SW-620 colon; 14.5 µM with MDA-MB-435; 24.1 µM in the assay with RPMI-8226 leukemia; 15.4 µM with OVCAR-5 ovarian; 13.6 µM in the assay on SR leukemia; 20.5 µM in the assay with CAKI-1 renal. For the same molecule, the GI50 in the assay with MCF7 breast was 13.2 µM; with T-47D breast, 13.5 µM; in the assay with NCI-H226 lung it was 21.2 µM. In addition, the TGI is 33.1 µM in the assay with SW-620 colon; 28.4 µM in the assay with MDA-MB-435; 83 µM in the assay on RPMI-8226 leukemia; 31.7 µM in the assay with OVCAR-5 ovarian; 51.7 µM with SR leukemia; 55.2 µM with CAKI-1 renal. For the same molecule, the values for the TGI with MCF7 breast, in the assay with T-47D breast and in the assay on NCI-H226 lung were 43.4 µM, 38.7 µM and 50 µM, respectively.

Turning to `Clc1ccc2c(NCCNc3nc(N4CCOCC4)nc4ccccc34)ccnc2c1`, the GI50 is 2.97 µM in the assay on SW-620 colon; 2.34 µM in the assay with MDA-MB-435; 1.72 µM in the assay with RPMI-8226 leukemia; 3.34 µM in the assay with OVCAR-5 ovarian; 4 µM in the assay with EKVX NSCLC; 0.313 µM with SR leukemia. Further, the GI50 in the assay with MCF7 breast is 3.82 µM; in the assay on T-47D breast, 2.82 µM; in the assay on NCI-H226 lung, 1.68 µM. For the same molecule, the TGI in the assay on SW-620 colon came out at 10.8 µM; with MDA-MB-435, 5.88 µM; in the assay on RPMI-8226 leukemia it was 5.17 µM; with OVCAR-5 ovarian, 12.6 µM; in the assay on EKVX NSCLC it was 16.4 µM; in the assay with SR leukemia, 2.03 µM. Besides, the results for the TGI in the assay with MCF7 breast, in the assay with T-47D breast and in the assay with NCI-H226 lung were 17.2 µM, 8.98 µM and 3.57 µM, respectively.

For `COc1cccc(C2CC(=O)Nc3c2c(C)nn3-c2nc3ccccc3[nH]2)c1OC` (configuration not stated), the GI50 was 4.19 µM with SW-620 colon; 3 µM in the assay with MDA-MB-435; 3.21 µM with RPMI-8226 leukemia; 11.8 µM in the assay on OVCAR-5 ovarian; 4.22 µM with SR leukemia; 3 µM in the assay with CAKI-1 renal. Moreover, the GI50 in the assay with MCF7 breast is 3.36 µM; with T-47D breast, 4.02 µM; in the assay with NCI-H226 lung, 3.36 µM. The TGI in the assay with SW-620 colon is 46.4 µM; with MDA-MB-435, 12 µM; with RPMI-8226 leukemia it was 10.6 µM; with OVCAR-5 ovarian, over 100 µM; with SR leukemia it was over 40.9 µM; in the assay on CAKI-1 renal it was 19.7 µM. The TGI was over 100 µM with MCF7 breast, 50.7 µM in the assay on T-47D breast and 15.9 µM in the assay on NCI-H226 lung.

For `CCCCCCCCCCCCCCCCCc1nc(Cl)nc(Cl)c1Cl`, the TGI with SW-620 colon, in the assay on MDA-MB-435, with RPMI-8226 leukemia, in the assay with OVCAR-5 ovarian, in the assay with SR leukemia and with CAKI-1 renal was over 100 µM throughout. Further, the TGI in the assay with MCF7 breast is over 100 µM; with T-47D breast, over 100 µM; in the assay on NCI-H226 lung, 34.6 µM.

For `CC1(C)N=C(N)N=C(N)N1c1ccc(CCCC(=O)Nc2ccc(S(=O)(=O)F)cc2)cc1`, the GI50 in the assay with SW-620 colon was 1.99 µM; in the assay with MDA-MB-435, 3.75 µM; in the assay on RPMI-8226 leukemia, 5.36 µM; with OVCAR-5 ovarian it was 12 µM; in the assay with SR leukemia, 1.53 µM; in the assay with CAKI-1 renal, 35 µM. For the same molecule, the GI50 was 5.23 µM in the assay on MCF7 breast, 15.8 µM in the assay on T-47D breast and 63.1 µM in the assay on NCI-H226 lung. Also, the TGI in the assay with SW-620 colon, with MDA-MB-435, in the assay on RPMI-8226 leukemia, in the assay with OVCAR-5 ovarian, in the assay on SR leukemia and in the assay with CAKI-1 renal was over 100 µM throughout. Also, the TGI with MCF7 breast was over 100 µM; with T-47D breast, 98.2 µM; in the assay with NCI-H226 lung it was over 100 µM.

As to `O=c1ccc(N=Nc2ccccc2)ccc1O`, the TGI in the assay on SW-620 colon was determined as 22.5 µM; with MDA-MB-435, 30.7 µM; in the assay with OVCAR-5 ovarian, 47.4 µM; in the assay on EKVX NSCLC, 81.1 µM; with SR leukemia it was 22.2 µM; in the assay with CAKI-1 renal, 29.4 µM. Besides, the TGI in the assay with MCF7 breast is over 100 µM; with T-47D breast, 42.4 µM; in the assay on NCI-H226 lung, 24.3 µM.

With `O=S(=O)(c1ccccc1)N1CCCC(c2ccccc2)CC1` (configuration not stated), the TGI is over 100 µM with SW-620 colon; over 100 µM in the assay with MDA-MB-435; 49.8 µM in the assay with RPMI-8226 leukemia; over 100 µM in the assay with OVCAR-5 ovarian; over 100 µM in the assay with SR leukemia; over 100 µM in the assay with CAKI-1 renal. Besides, the TGI in the assay with MCF7 breast was 53.7 µM; with T-47D breast, over 100 µM; in the assay on NCI-H226 lung it was over 100 µM.
